# Earlier results as cited in US20100119624A1, “BENZISOXAZOLE MODULATORS OF D2 RECEPTOR AND/OR 5-HT2A RECEPTOR” (AUSPEX PHARMACEUTICALS, INC., priority 2008, published 2010).
# Experiments:
# prolactin = details: in vivo
# [1] = in vivo
# [2] = coadministration of nafzodone, a competitive CYP3A inhibitor
Structure (SMILES),levels of prolactin (prolactin),half-life [1],decrease in risperidone clearance [2]
Cc1nc2n(c(=O)c1CCN1CCC(c3noc4cc(F)ccc34)CC1)CCCC2O (stereo not drawn) [9-Hydroxyrisperidone],elevation in the levels of prolactin,–,–
"Cc1nc2n(c(=O)c1CCN1CCC(c3noc4cc(F)ccc34)CC1)CCCC2 [Risperidone, 4-[2-[4-(6-fluorobenzo[d]isoxazol-3-yl)-1-piperidyl]ethyl]-3-methyl-2,6-diazabicyclo[4.4.0]deca-1,3-dien-5-one]",–,about 2 hours,~50%
